Assay results as given in patent US20100210467A1, “AGENT FOR IMPROVING SUGARCANE BRIX AND METHOD OF PROMOTING SUGARCANE RIPENING USING THE SAME” (Kumiai Chemical Industry Co., Ltd., priority 2007, published 2010).

What was measured:
Format in all cases: in vivo
[1] = test system: sugarcane; assay: Example 1: sugar content of sugarcane stem juice after power-sprayer application, field test in Brazil
Method: With respect to sugarcane grown in a sugarcane cultivated area in Brazil (an average Brix value in the harvesttime being 18%), a juice was collected from 5 middle internodes selected at random in the sugarcane stem and the Brix value was measured according to a usual method. At the time the measured Brix value became 82% of the aforementioned average Brix value, a bispyribac-sodium formulation (a commercially available product, a tradename “NOMINEE 400SC”) was diluted with water so that the amount of the effective ingredient in 74 liters of the spraying liquid could be equal to the used amount shown in Table 1. The liquid was then sprayed above the plant by the aid of a power sprayer to a test area at a rate of 74 liters per hectare.
(§1) In a control area, a known sulfometuron-methyl formulation (a commercially available product, a tradename “CURAVIAL”) was similarly sprayed.
Next, 10 individual sugarcanes were cut from each area on the initial day of spraying, after 30 days of spraying and after 45 days of spraying, and thereafter the stem was squeezed and sugar was recovered from the juice to obtain the yield. Each yield was compared with the yield of the initial day of spraying and the rate of increase (%) was calculated.
(§2) In accordance with “NORMAS DE AVALIAçÃO DA […] DA CANA-DE-AçÚCAR” used in Brazilian sugar refining plants as Standard for quality evaluation of sugarcane, the analysis on the sugar content in the squeezed juice of sugarcane stem was carried out for Brix value, sugar content in sugarcane (PC), and total sugar amount recoverable from sugarcane stem (ATR) as follows.
(§3) Brix was measured according to a digital refractometer. PC was calculated according to the equation (1). ATR was calculated according to the equation (5).
S denotes a sugar content in the extracted liquid and is calculated according to the equation (2). F denotes an amount of fibers in sugarcane and is calculated according to the equation (3). C denotes a conversion coefficient from the sugar content in the extracted liquid to an absolute amount and is calculated according to the equation (4).
LAI denotes a measured value by the digital saccharimeter after clarification of the juice by a clarifying mixture made from aluminum.
PBU denotes the mass of a wet bagasse exhausted from a pressing machine in the squeezed step of sugarcane stem.
ARC denotes an amount of reducing sugar of sugarcane and is calculated from the following equation (6).
AR denotes an amount of reducing sugar in the extracted liquid and is calculated from the following equation (7).

[2] = test system: sugarcane; assay: Example 2: sugar content of sugarcane stem juice after spraying from an aircraft, field test in Brazil; conditions: after 30 days of spraying
Method: as §2, §3
At the time the Brix value of sugarcane grown in a sugarcane cultivated area in Brazil (an average Brix value in the harvesttime being 21%) became 81% of the aforesaid average Brix value, a bispyribac-sodium formulation (a commercially available product, a tradename “NOMINEE 400SC”) was diluted with water so that the amount of the effective ingredient in 30 liters of the spraying liquid could be equal to the used amount shown in Table 3, and the liquid was sprayed over the test area from an air-craft at a rate of 30 liters per hectare.
In a control area, a known fluazifop formulation (a commercially available product, a tradename “[…]”) was similarly sprayed.
Next, 5 individual sugarcanes were cut from 5 locations in each area, i.e. 25 sugarcanes from each area, on the initial day of spraying and after 30 days of spraying, and thereafter the stems were squeezed and sugar was recovered from the juice to obtain the yield. The yield after 30 days of spraying was compared with the yield of the initial day of spraying and the rate of increase (%) was calculated. The analysis on the sugar content in the squeezed juice of sugarcane stems was carried out similarly as in the case of Example 1.

[3] = test system: sugarcane; assay: Example 5: sugar content of sugarcane stem juice after bispyribac-sodium and/or gibberellin spraying, field test in Brazil; conditions: 20 g/ha
Method: as §2, §3
At the time the Brix value of sugarcane grown in a sugarcane cultivated area in Brazil (an average Brix value in the harvesttime being 18%) became 88% of the aforesaid average Brix value, a bispyribac-sodium formulation (a commercially available product, a tradename, “NOMINEE 400SC”) and a gibberellin formulation (a commercially available product, a tradename, “PRO-GIBB”) were admixed together and diluted with water or separately diluted with water so that the amount of the effective ingredient in 105 liters of each of the spraying liquids could be equal to the used amount shown in Table 8, and each liquid was sprayed above the plant by the aid of a CO2-pressurized back pack sprayer to the test area at a rate of 105 liters per hectare.
as §1
Next, 20 individual sugarcanes were cut from each area on the initial day of spraying, after 15 days of spraying, after 30 days of spraying and after 45 days of spraying, and thereafter the stems were squeezed and sugar was recovered from the juice to obtain the yield. Each yield was compared with the yield of the initial day of spraying and the rate of increase (%) was calculated. The analysis on the sugar content in the squeezed juice of sugarcane stems was carried out similarly as in the case of Example 1.

[4] = 16 g/ha, after 30 days of spraying
[5] = 16 g/ha, after 45 days of spraying
[6] = 35 g/ha, after 30 days of spraying
[7] = 35 g/ha, after 45 days of spraying

## COc1cc(OC)nc(Oc2cccc(Oc3nc(OC)cc(OC)n3)c2C(=O)O)n1 [Bispyribac-sodium]
[1]; [4]
  ATR increased rate from the initial day of spraying: 23.1%
  Brix increased rate from the initial day of spraying: 23.0%
  Concentration of soluble solid matter, Brix: 18.4%
  PC increased rate from the initial day of spraying: 25.7%
  Sugar content in sugarcane, PC: 13.0%
  Total sugar amount recoverable from 1 kg of stem, ATR: 129.7 g
[1]; [5]
  ATR increased rate from the initial day of spraying: 44.9%
  Brix increased rate from the initial day of spraying: 41.0%
  Concentration of soluble solid matter, Brix: 21.1%
  PC increased rate from the initial day of spraying: 50.9%
  Sugar content in sugarcane, PC: 15.5%
  Total sugar amount recoverable from 1 kg of stem, ATR: 152.7 g
[1]; [6]
  ATR increased rate from the initial day of spraying: 32.0%
  Brix increased rate from the initial day of spraying: 29.5%
  Concentration of soluble solid matter, Brix: 20.5%
  PC increased rate from the initial day of spraying: 35.9%
  Sugar content in sugarcane, PC: 14.7%
  Total sugar amount recoverable from 1 kg of stem, ATR: 145.1 g
[1]; [7]
  ATR increased rate from the initial day of spraying: 42.1%
  Brix increased rate from the initial day of spraying: 37.1%
  Concentration of soluble solid matter, Brix: 21.7%
  PC increased rate from the initial day of spraying: 47.6%
  Sugar content in sugarcane, PC: 15.9%
  Total sugar amount recoverable from 1 kg of stem, ATR: 156.2 g
[2]; 25 g/ha
  ATR increased rate from the initial day of spraying: 22.3%
  Brix increased rate from the initial day of spraying: 19.8%
  Concentration of soluble solid matter, Brix: 19.9%
  PC increased rate from the initial day of spraying: 24.1%
  Sugar content in sugarcane, PC: 14.6%
  Total sugar amount recoverable from 1 kg of stem, ATR: 141.8 g
[2]; 30 g/ha
  ATR increased rate from the initial day of spraying: 22.1%
  Brix increased rate from the initial day of spraying: 21.6%
  Concentration of soluble solid matter, Brix: 20.8%
  PC increased rate from the initial day of spraying: 25.2%
  Sugar content in sugarcane, PC: 15.6%
  Total sugar amount recoverable from 1 kg of stem, ATR: 149.0 g
[3]; after 15 days of spraying
  ATR increased rate from the initial day of spraying: 6.2%
  Brix increased rate from the initial day of spraying: 4.5%
  Concentration of soluble solid matter, Brix: 16.2%
  Total sugar amount recoverable from 1 kg of stem, ATR: 112.5 g
[3]; after 30 days of spraying
  ATR increased rate from the initial day of spraying: 17.3%
  Brix increased rate from the initial day of spraying: 11.7%
  Concentration of soluble solid matter, Brix: 17.3%
  Total sugar amount recoverable from 1 kg of stem, ATR: 124.2 g
[3]; after 45 days of spraying
  ATR increased rate from the initial day of spraying: 19.1%
  Brix increased rate from the initial day of spraying: 12.9%
  Concentration of soluble solid matter, Brix: 17.5%
  Total sugar amount recoverable from 1 kg of stem, ATR: 126.1 g
